The inhibition in vivo is the relative decrease from the control value, in per cent. What is called IC50 is the concentration that inhibits the measured activity by half. The term solubility denotes the concentration that dissolves in the medium under given conditions. The term Ki denotes the equilibrium dissociation constant of an inhibitor or competing ligand from its target. As a reminder, the half-life is how long it takes for the measured level to halve. For orientation: inhibition means the change of the read-out against control, counted positive when it falls.

Data on 6 compounds can be found in ChEMBL document CHEMBL5113513, “Selective Inhibitors of Medium-Size S1' Pocket Matrix Metalloproteinases: A Stepping Stone of Future Drug Discovery” (J Med Chem, 2022).

The nature of data set [1]: Inhibition of brain damage in C57BL/6J mouse traumatic brain injury model at 25 mg/kg, ip for 7 days by cresyl violet-staining based histopathological analysis. The format is functional. The note with it: 168 h, time 7 day.
In data set [2] the target is T1, Neutrophil collagenase (Homo sapiens, UniProt P22894). Description: Inhibition of MMP-8 (unknown origin).
T1 sequence (P22894 whole entry): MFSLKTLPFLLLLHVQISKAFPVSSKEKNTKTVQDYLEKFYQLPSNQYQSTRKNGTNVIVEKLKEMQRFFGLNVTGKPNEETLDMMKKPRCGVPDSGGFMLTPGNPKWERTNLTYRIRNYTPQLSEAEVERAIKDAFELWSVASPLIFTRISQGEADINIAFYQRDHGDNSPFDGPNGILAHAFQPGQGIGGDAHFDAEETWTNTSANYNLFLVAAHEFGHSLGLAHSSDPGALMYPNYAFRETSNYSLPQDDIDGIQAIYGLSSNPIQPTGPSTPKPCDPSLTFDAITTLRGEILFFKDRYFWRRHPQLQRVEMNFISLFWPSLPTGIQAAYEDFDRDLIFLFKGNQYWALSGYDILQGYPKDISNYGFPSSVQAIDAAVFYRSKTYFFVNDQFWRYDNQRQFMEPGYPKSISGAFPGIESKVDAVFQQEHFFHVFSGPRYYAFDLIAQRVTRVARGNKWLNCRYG
Data set [3] concerns the target T2, Stromelysin-2 (Homo sapiens, UniProt P09238). Description: Inhibition of MMP-10 (unknown origin).
Data set [4] has as its target T3, Matrix metalloproteinase-9 (Homo sapiens, UniProt P14780). Put plainly: Inhibition of MMP-9 (unknown origin) catalytic activity using Ac-PLG-[2-mercapto-4-methylpentanoyl]-LG-OC2H5 as substrate and measured upto 30 mins by microplate reader analysis.
A short description of data set [5]: Aqueous solubility of compound by UV spectroscopy. The format is physicochemical.
The target in data set [6] is T4, Stromelysin-1 (Homo sapiens, UniProt P08254). Description: Inhibition of MMP-3 (unknown origin).
T4 sequence (P08254 whole entry): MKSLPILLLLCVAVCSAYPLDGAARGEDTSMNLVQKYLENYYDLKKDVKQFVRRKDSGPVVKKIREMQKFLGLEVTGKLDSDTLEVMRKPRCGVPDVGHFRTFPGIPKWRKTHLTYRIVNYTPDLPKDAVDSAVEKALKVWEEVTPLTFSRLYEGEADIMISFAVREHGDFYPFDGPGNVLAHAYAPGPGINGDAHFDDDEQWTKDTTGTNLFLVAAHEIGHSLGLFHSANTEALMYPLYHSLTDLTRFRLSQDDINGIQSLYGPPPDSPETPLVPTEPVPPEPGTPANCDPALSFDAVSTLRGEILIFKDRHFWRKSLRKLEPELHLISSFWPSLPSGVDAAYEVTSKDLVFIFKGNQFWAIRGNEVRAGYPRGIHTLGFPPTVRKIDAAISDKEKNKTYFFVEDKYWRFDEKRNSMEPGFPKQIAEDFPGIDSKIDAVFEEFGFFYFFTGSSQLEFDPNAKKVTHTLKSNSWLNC
Data set [7] concerns the target T5, Matrix metalloproteinase-14 (Homo sapiens, UniProt P50281). Description: Inhibition of MMP-14 (unknown origin).
Data set [8] deals with T6, Matrilysin (Homo sapiens, UniProt P09237).
T6 sequence (P09237 whole entry): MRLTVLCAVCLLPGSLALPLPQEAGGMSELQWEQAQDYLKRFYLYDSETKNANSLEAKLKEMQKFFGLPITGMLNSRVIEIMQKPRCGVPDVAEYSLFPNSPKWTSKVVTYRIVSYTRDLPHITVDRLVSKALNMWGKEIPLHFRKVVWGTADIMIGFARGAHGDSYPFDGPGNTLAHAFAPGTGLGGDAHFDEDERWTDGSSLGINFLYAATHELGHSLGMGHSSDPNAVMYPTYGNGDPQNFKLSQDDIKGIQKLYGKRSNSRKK
Put plainly: Inhibition of MMP-7 (unknown origin).

The target of data set [9] is T7, Macrophage metalloelastase (Homo sapiens, UniProt P39900). Put plainly: Inhibition of MMP-12 (unknown origin).
T7 sequence (P39900 whole entry): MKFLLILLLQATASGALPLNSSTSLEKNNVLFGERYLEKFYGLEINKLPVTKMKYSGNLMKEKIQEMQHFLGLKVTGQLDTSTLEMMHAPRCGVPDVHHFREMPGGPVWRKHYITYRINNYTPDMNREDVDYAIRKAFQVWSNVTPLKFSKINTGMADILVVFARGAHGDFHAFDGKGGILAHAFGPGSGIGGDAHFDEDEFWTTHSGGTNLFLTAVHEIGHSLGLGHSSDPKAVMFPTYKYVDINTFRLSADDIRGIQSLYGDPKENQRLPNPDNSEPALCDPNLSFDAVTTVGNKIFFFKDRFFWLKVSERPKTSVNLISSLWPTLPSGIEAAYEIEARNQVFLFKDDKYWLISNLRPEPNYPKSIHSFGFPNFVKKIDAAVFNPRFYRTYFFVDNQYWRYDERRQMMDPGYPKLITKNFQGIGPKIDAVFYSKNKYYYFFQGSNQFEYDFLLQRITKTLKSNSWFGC
For data set [10], the target named is T8, Interstitial collagenase (Homo sapiens, UniProt P03956).
T8 sequence (P03956 whole entry): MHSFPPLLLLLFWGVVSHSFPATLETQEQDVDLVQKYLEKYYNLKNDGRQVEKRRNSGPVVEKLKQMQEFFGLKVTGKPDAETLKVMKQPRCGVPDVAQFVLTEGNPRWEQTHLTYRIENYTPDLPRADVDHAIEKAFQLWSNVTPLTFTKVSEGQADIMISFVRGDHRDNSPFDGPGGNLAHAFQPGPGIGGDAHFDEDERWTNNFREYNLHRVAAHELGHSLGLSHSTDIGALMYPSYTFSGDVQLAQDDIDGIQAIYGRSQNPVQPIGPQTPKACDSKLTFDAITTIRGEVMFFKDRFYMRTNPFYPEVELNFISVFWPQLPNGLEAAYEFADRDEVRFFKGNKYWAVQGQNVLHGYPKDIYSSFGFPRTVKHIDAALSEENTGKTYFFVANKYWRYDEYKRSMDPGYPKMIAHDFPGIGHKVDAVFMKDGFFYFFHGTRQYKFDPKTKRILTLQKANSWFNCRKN
Put plainly: Inhibition of MMP-1 (unknown origin).

Data set [11] deals with T9, 72 kDa type IV collagenase (Homo sapiens, UniProt P08253). Description: Inhibition of MMP-2 (unknown origin) catalytic activity using Ac-PLG-[2-mercapto-4-methylpentanoyl]-LG-OC2H5 as substrate and measured upto 30 mins by microplate reader analysis.
T9 sequence (P08253 whole entry): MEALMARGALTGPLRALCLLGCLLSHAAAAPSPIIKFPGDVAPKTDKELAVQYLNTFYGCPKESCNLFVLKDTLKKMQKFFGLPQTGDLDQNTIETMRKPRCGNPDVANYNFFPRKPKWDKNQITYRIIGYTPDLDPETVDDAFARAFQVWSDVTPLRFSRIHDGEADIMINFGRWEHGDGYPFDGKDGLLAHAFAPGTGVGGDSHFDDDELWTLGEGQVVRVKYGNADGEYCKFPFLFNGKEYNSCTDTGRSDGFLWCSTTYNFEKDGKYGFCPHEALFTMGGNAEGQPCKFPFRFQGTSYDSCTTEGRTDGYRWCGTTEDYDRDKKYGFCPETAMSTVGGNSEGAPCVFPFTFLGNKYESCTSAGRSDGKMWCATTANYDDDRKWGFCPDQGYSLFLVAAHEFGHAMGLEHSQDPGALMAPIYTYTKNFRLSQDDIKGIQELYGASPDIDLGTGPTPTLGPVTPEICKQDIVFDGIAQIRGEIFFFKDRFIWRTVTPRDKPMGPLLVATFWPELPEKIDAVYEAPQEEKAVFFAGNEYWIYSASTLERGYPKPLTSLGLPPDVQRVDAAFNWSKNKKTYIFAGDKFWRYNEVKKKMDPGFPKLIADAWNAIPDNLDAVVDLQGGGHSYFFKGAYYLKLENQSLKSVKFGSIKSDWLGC
Data set [12] concerns the target T10, Collagenase 3 (Homo sapiens, UniProt P45452).
Description: Inhibition of MMP-13 (unknown origin)
The test system of data set [13] is HT-1080. Description: Inhibition of cell invasion in human HT-1080 for 22 hrs by CyQuantGR dye based fluorometric analysis. The format is functional.
In data set [14] the target is T9, 72 kDa type IV collagenase. Put plainly: Inhibition of human MMP-2 expressed in Escherichia coli BL21(DE3) using Mca-Pro-Leu-Gly-Leu-Dpa-Ala-Arg-NH2 as substrate preincubated for 30 mins followed by susbstrate addition by photon-counter spectrophotometer analysis.
For data set [15], the target named is T4, Stromelysin-1. Put plainly: Inhibition of human MMP-3 expressed in Escherichia coli BL21(DE3) using Mca-Pro-Leu-Gly-Leu-Dpa-Ala-Arg-NH2 as substrate preincubated for 30 mins followed by susbstrate addition by photon-counter spectrophotometer analysis.
Data set [16] deals with T8, Interstitial collagenase. Description: Inhibition of human MMP-1 expressed in Escherichia coli BL21(DE3) using Mca-Pro-Leu-Gly-Leu-Dpa-Ala-Arg-NH2 as substrate preincubated for 30 mins followed by susbstrate addition by photon-counter spectrophotometer analysis.
In data set [17] the target is T5, Matrix metalloproteinase-14. Put plainly: Inhibition of human MMP-14 expressed in Escherichia coli BL21(DE3) using Mca-Pro-Leu-Gly-Leu-Dpa-Ala-Arg-NH2 as substrate preincubated for 30 mins followed by susbstrate addition by photon-counter spectrophotometer analysis.
For data set [18], the target named is T1, Neutrophil collagenase. Put plainly: Inhibition of human MMP-8 expressed in Escherichia coli BL21(DE3) using Mca-Pro-Leu-Gly-Leu-Dpa-Ala-Arg-NH2 as substrate preincubated for 30 mins followed by susbstrate addition by photon-counter spectrophotometer analysis.
For data set [19], the target named is T6, Matrilysin. Description: Inhibition of human MMP-7 expressed in Escherichia coli BL21(DE3) using Mca-Pro-Leu-Gly-Leu-Dpa-Ala-Arg-NH2 as substrate preincubated for 30 mins followed by susbstrate addition by photon-counter spectrophotometer analysis.
Data set [20] deals with T3, Matrix metalloproteinase-9. Put plainly: Inhibition of human MMP-9 expressed in Escherichia coli BL21(DE3) using Mca-Pro-Leu-Gly-Leu-Dpa-Ala-Arg-NH2 as substrate preincubated for 30 mins followed by susbstrate addition by photon-counter spectrophotometer analysis.
Data set [21] addresses T10, Collagenase 3. Put plainly: Inhibition of human MMP-13 expressed in Escherichia coli BL21(DE3) using Mca-Pro-Leu-Gly-Leu-Dpa-Ala-Arg-NH2 as substrate preincubated for 30 mins followed by susbstrate addition by photon-counter spectrophotometer analysis.
In data set [22] the target is T2, Stromelysin-2. Description: Inhibition of human MMP-10 expressed in Escherichia coli BL21(DE3) using Mca-Pro-Leu-Gly-Leu-Dpa-Ala-Arg-NH2 as substrate preincubated for 30 mins followed by susbstrate addition by photon-counter spectrophotometer analysis.
Data set [23] addresses T9, 72 kDa type IV collagenase. Put plainly: Inhibition of recombinant human MMP-2 using peptide substrate by ELISA. For orientation: An ELISA detects its analyte on a solid surface through an enzyme-linked reagent.
A short description of data set [24]: Half life in Sprague-Dawley rats at 150 mg/kg, po. The format is ADME, organism-based. As to conditions: rat, in vivo.
Data set [25] is described as follows: Half life in Sprague-Dawley rats at 50 mg/kg, iv. The format is ADME, organism-based. As to conditions: rat, in vivo.
Data set [26] concerns Mus musculus. Put plainly: Antitumor activity against SCID mouse with human tumor cell orthotopic implantation assessed as reduction in tumor growth at 50 mg/kg, ip for 6 weeks. On the set-up: scale not given: the % may be the effect or the level left. The class given is functional.
In data set [27] the test system is Mus musculus. Put plainly: Antimetastatic activity in SCID mouse with human tumor cell orthotopic implantation assessed as reduction in tumor metastasis at 50 mg/kg, ip for 6 weeks. The format is functional. Set-up: scale not given: the % may be the effect or the level left.
Data set [28] concerns B16-F10. Put plainly: Inhibition of cell invasion in mouse B16-F10 cells at 100 uM by Matrigel invasion assay. The class given is functional.
Data set [29] can be described thus: Inhibition of recombinant human TACE using peptide substrate by ELISA.
Data set [30] is described as follows: Half life in Sprague-Dawley rats at 150 mg/kg, ip. The class given is ADME, organism-based. The note with it: rat, in vivo.
Data set [31] concerns the target T10, Collagenase 3. Put plainly: Inhibition of recombinant human MMP-13 using peptide substrate by ELISA.
In data set [32] the target is T3, Matrix metalloproteinase-9. Description: Inhibition of recombinant human MMP-9 using peptide substrate by ELISA.
Data set [33] deals with T1, Neutrophil collagenase. Put plainly: Inhibition of recombinant human MMP-8 using peptide substrate by ELISA.
Data set [34] concerns the target T4, Stromelysin-1. Put plainly: Inhibition of recombinant human MMP-3 using peptide substrate by ELISA.
Data set [35] addresses T7, Macrophage metalloelastase. Description: Inhibition of recombinant human MMP-12 using peptide substrate by ELISA.
The subject of data set [36] is B16-F10. Description: Antimetastatic activity in mouse B16-F10 xenografted C57BL mouse melanoma model assessed as reduction in metastasis loci at 12.5 to 50 mg/kg, ip. The format is functional. Set-up: scale not given: the % may be the effect or the level left. The note with it: dose 12.5-50 mg/kg.
Data set [37] deals with T8, Interstitial collagenase. Put plainly: Inhibition of recombinant human MMP-1 using peptide substrate by ELISA.
Data set [38] has as its target T1, Neutrophil collagenase. Put plainly: Inhibition of recombinant human MMP-8 for 3 hrs using colorimetric substrate by ELISA.
The target of data set [39] is T9, 72 kDa type IV collagenase.
The subject of data set [40] is HT-1080. Put plainly: Inhibition of cell invasion in human HT-1080 cells for 24 hrs by Calcein AM staining based fluorometric analysis. As to conditions: HT-1080, 24 h. The format is functional.

Each structure is given as a SMILES string. Converted amounts (≈) assume the structure as drawn. Bounds are passed on as bounds.

T3 sequence (P14780 whole entry): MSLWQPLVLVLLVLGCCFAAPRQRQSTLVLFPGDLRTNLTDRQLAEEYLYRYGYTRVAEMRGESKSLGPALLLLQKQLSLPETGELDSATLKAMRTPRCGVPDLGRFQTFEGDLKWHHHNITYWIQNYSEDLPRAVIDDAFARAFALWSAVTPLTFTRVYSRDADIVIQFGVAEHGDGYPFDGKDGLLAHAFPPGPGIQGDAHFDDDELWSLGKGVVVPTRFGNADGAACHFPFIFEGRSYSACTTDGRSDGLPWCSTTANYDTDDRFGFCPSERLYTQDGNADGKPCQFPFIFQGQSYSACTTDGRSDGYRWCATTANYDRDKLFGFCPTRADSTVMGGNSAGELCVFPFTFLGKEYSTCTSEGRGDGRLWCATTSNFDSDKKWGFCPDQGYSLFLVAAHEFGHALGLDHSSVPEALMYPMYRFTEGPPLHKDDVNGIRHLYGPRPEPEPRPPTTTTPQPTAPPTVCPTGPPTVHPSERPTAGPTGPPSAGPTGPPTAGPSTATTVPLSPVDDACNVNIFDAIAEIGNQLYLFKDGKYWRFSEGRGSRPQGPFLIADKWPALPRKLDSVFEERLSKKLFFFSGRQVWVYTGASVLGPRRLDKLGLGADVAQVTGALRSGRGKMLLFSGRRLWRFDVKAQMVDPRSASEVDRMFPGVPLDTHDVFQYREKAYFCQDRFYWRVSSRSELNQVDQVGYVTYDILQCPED
T2 sequence (P09238 whole entry): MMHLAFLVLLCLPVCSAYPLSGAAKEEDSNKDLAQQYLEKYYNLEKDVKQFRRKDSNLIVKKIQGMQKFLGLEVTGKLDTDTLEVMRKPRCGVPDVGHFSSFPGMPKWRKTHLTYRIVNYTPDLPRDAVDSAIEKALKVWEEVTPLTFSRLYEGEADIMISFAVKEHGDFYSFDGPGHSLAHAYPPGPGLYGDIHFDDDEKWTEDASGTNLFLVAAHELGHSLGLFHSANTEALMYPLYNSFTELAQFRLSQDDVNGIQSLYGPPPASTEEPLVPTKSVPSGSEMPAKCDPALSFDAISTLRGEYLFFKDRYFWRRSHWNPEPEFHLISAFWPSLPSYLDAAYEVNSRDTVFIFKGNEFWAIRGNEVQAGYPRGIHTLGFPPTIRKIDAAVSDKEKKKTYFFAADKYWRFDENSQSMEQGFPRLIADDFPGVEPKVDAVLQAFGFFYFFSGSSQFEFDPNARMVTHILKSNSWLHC

`O=S(=O)(CC1CS1)c1ccc(Oc2ccccc2)cc1` (stereo not given) registered an inhibition in vivo at 25 mg/kg in [1] of 14%.

Consider `CN(C)c1ccc(-c2cn(-c3ccc(S(=O)(=O)C4(C(=O)NO)CCOCC4)cc3)nn2)cc1`, for which the IC50 in data set [2] is 202 nM; in data set [3], 44.5 nM; in data set [4], 43.9 nM; in data set [6] it was 50.5 nM; in data set [7], 286 nM; in data set [8], 825 nM. The IC50 in [9] is 4.8 nM; in [10] it was greater than 1000 nM; in data set [11], 1.7 nM; in data set [12] it was 3.2 nM. Moreover, in data set [5], the concentration in solution (solubility) was 996 µg/mL (≈ 2110 µM). Besides, in data set [13], the “inhibition (INH)” value was 37%.

In the case of `NC(=O)[C@H](CCC(=O)O)NC(=O)[C@@H](CCC(=O)O)NC(=O)CCc1ccc(-c2ccccc2)cc1`, the Ki in data set [14] was 445 nM; in data set [15], 6700 nM; in data set [16], greater than 100000 nM; in [17] it was 5900 nM; in [18], 226 nM; in data set [19] it was 24700 nM. Further, the values for the Ki in [20], in data set [21] and in data set [22] were 1090 nM, 689 nM and 1110 nM, respectively.

For the compound `NC1CCCCC1NC(=O)P(=O)(O)O` (stereo not given), the IC50 in data set [23] was 4 nM; in data set [29], greater than 100 nM; in data set [31] it was greater than 100 nM; in data set [32] it was 20 nM; in data set [33] it was greater than 100 nM; in data set [34], greater than 100 nM. The IC50 in data set [35] and in data set [37] was greater than 100 nM each time. Moreover, the half-life in data set [24] came out at 2.1 h; in data set [25] it was 0.313 h; in data set [30], 1.8 h. Besides, the Activity in data set [26] was determined as 60%; in data set [27], 90%; in [36] it was 50%. In [28], this compound displayed an inhibition at 100 µM of 90%.

As for `O=C(NC1CCC1)P(=O)(O)O` [(CYCLOBUTYLAMINO)CARBONYLPHOSPHONIC ACID], the IC50 in [38] was 4 nM.

As for `C[C@H]1c2cccc(O)c2C(=O)C2=C(O)[C@]3(O)C(=O)C(C(N)=O)=C(O)[C@@H](N(C)C)[C@@H]3[C@@H](O)[C@@H]21` [DOXYCYCLINE], the IC50 was 26000 nM in data set [2]; 32000 nM in data set [6]; 56000 nM in [39]; 28000 nM in data set [8]; greater than 400000 nM in data set [10]; 20000 nM in [12]. For the same compound, the IC50 in data set [40] was 21400 nM.
